From patent US9109004B2, “Progesterone receptor antagonists” (Bayer Intellectual Property GmbH, priority 2010, dated 2015)

What follows are compounds tested against T1, human progesterone receptor A (Homo sapiens, UniProt P06401) (assay: Progesterone-receptor-antagonistic action in stably transfected SK-N-MC cells, MTV-LUC reporter (PR-A)). Conditions: antagonistic potency vs 0.1 nmol/l promegestone, 24 hours, luciferase.
T1 construct: expressed in transfected cells; host or cells: SK-N-MC human neuroblastoma cells, stably transfected
T1 sequence (P06401 1-769 isoform P06401-2): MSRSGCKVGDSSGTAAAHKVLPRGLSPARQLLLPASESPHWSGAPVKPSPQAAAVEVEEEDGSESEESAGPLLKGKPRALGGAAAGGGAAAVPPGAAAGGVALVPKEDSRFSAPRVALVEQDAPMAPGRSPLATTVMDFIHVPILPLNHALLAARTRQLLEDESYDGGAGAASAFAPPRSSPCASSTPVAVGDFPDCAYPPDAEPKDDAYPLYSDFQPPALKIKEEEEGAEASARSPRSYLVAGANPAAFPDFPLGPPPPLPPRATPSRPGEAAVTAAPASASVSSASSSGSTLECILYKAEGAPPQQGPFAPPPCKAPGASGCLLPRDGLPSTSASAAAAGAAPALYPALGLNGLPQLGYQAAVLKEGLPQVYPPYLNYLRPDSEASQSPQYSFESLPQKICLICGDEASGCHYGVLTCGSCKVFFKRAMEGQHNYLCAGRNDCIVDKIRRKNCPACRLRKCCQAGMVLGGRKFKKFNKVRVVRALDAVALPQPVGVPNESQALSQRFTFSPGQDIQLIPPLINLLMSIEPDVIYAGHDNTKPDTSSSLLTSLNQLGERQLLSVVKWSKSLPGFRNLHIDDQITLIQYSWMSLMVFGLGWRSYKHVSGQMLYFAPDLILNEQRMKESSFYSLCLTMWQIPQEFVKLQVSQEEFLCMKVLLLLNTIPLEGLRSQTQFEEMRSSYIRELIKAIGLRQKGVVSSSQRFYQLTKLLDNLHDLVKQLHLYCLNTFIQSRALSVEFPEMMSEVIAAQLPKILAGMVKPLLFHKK
Assay type: cell-based
Method: Progesterone-Receptor-Antagonistic Action in Stable Transfectants of Human Neuroblastoma Cells (SK-N-MC Cells) with the Human Progesterone A or Progesterone B Receptor and an MTV-LUC Reporter Construct
SK-N-MC cells (human neuroblastoma cells) that have been stably transfected with plasmids that express the human progesterone receptor B (pRChPR-B-neo) or the human progesterone receptor A (pRChPR-A-neo) and a reporter construct (pMMTV-LUC), were incubated for 24 hours either in the absence (negative control) or in the presence of increasing amounts of the particular test compound (0.01 nmol/l, 0.1 nmol/l, 1 nmol/l, 10 nmol/l, 100 nmol/l and 1 μmol/l), to determine the agonistic efficacy. As positive control of reporter gene induction, the cells were treated with the synthetic gestagen promegestone (0.01 nmol/l, 0.1 nmol/l, 1 nmol/l, 10 nmol/l, 100 nmol/l and 1 μmol/l). For determination of the antagonistic activity, the cells were treated with 0.1 nmol/l promegestone and additionally with increasing amounts of the particular test compound (0.01 nmol/l, 0.1 nmol/l, 1 nmol/l, 10 nmol/l, 100 nmol/l and 1 μmol/l). The activity of the reporter gene LUC (LUC=luciferase) was determined in the cell lysates and was measured as RLU (relative light units). All measured values are given as % efficacy and as EC50 or IC50 concentrations.

SMILES | IC50
C[C@]12C[C@H](c3ccc(C(=O)Nc4ccccn4)cc3)C3=C4CCC(=O)C=C4CC[C@H]3[C@@H]1CC[C@@]2(O)C(F)(F)C(F)(F)F [Example 11, 4-[(11β,17β)-17-hydroxy-3-oxo-17-(pentafluoroethyl)estra-4,9-dien-11-yl]-N-(pyridin-2-yl)benzamide] | 10 nM
CC(=O)NCCNC(=O)c1ccc([C@H]2C[C@@]3(C)[C@@H](CC[C@@]3(O)C(F)(F)C(F)(F)F)[C@@H]3CCC4=CC(=O)CCC4=C32)cc1 [Example 37, N-(2-acetamidoethyl)-4-[(11β,17β)-17-hydroxy-3-oxo-17-(pentafluoroethyl)estra-4,9-dien-11-yl]benzamide] | 385 nM
C[C@]12C[C@H](c3ccc(C(=O)N4CCN(Cc5ccncc5)CC4)cc3)C3=C4CCC(=O)C=C4CC[C@H]3[C@@H]1CC[C@@]2(O)C(F)(F)C(F)(F)F [Example 49, (11β,17β)-17-hydroxy-17-(pentafluoroethyl)-11-(4-{[4-(pyridin-4-ylmethyl)piperazin-1-yl]carbonyl}phenyl)estra-4,9-dien-3-one] | 7.6 nM
CN(Cc1ccccn1)C(=O)c1ccc([C@H]2C[C@@]3(C)[C@@H](CC[C@@]3(O)C(F)(F)C(F)(F)F)[C@@H]3CCC4=CC(=O)CCC4=C32)cc1 [Example 31, 4-[(11β,17β)-17-hydroxy-3-oxo-17-(pentafluoroethyl)estra-4,9-dien-11-yl]-N-methyl-N-(pyridin-2-ylmethyl)benzamide] | 10.8 nM
C[C@]12C[C@H](c3ccc(C(=O)NCCN4CCCC4)cc3)C3=C4CCC(=O)C=C4CC[C@H]3[C@@H]1CC[C@@]2(O)C(F)(F)C(F)(F)F [Example 54, 4-[(11β,17β)-17-hydroxy-3-oxo-17-(pentafluoroethyl)estra-4,9-dien-11-yl]-N-[2-(pyrrolidin-1-yl)ethyl]benzamide] | 21 nM
C[C@]12C[C@H](c3ccc(C(=O)Nc4ccccc4)cc3)C3=C4CCC(=O)C=C4CC[C@H]3[C@@H]1CC[C@@]2(O)C(F)(F)C(F)(F)F [Example 22, 4-[(11β,17β)-17-hydroxy-3-oxo-17-(pentafluoroethyl)estra-4,9-dien-11-yl]-N-phenylbenzamide] | 39 nM
C[C@]12C[C@H](c3ccc(C(=O)Nc4ccc(Cl)cc4)cc3)C3=C4CCC(=O)C=C4CC[C@H]3[C@@H]1CC[C@@]2(O)C(F)(F)C(F)(F)F [Example 26, N-(4-chlorophenyl)-4-[(11β,17β)-17-hydroxy-3-oxo-17-(pentafluoroethyl)estra-4,9-dien-11-yl]benzamide] | 28 nM
CN1CCN(CCNC(=O)c2ccc([C@H]3C[C@@]4(C)[C@@H](CC[C@@]4(O)C(F)(F)C(F)(F)F)[C@@H]4CCC5=CC(=O)CCC5=C43)cc2)CC1 [Example 62, 4-[(11β,17β)-17-hydroxy-3-oxo-17-(pentafluoroethyl)estra-4,9-dien-11-yl]-N-[2-(4-methylpiperazin-1-yl)ethyl]benzamide] | 94 nM
C[C@]12C[C@H](c3ccc(C(=O)N4CCN(Cc5cccnc5)CC4)cc3)C3=C4CCC(=O)C=C4CC[C@H]3[C@@H]1CC[C@@]2(O)C(F)(F)C(F)(F)F [Example 69, (11β,17β)-17-hydroxy-17-(pentafluoroethyl)-11-(4-{[4-(pyridin-3-ylmethyl)piperazin-1-yl]carbonyl}phenyl)estra-4,9-dien-3-one] | 7.3 nM
CN(CCc1ccccn1)C(=O)c1ccc([C@H]2C[C@@]3(C)[C@@H](CC[C@@]3(O)C(F)(F)C(F)(F)F)[C@@H]3CCC4=CC(=O)CCC4=C32)cc1 [Example 50, 4-[(11β,17β)-17-hydroxy-3-oxo-17-(pentafluoroethyl)estra-4,9-dien-11-yl]-N-methyl-N-[2-(pyridin-2-yl)ethyl]benzamide] | 15.7 nM
C[C@]12C[C@H](c3ccc(C(=O)Nc4cccc(C(=O)O)c4)cc3)C3=C4CCC(=O)C=C4CC[C@H]3[C@@H]1CC[C@@]2(O)C(F)(F)C(F)(F)F [Example 77, 3-({4-[(11β,17β)-17-Hydroxy-3-oxo-17-(pentafluoroethyl)estra-4,9-dien-11-yl]benzoyl}amino)benzoic acid] | 140 nM
C[C@]12C[C@H](c3ccc(C(=O)NCCCN4CCOCC4)cc3)C3=C4CCC(=O)C=C4CC[C@H]3[C@@H]1CC[C@@]2(O)C(F)(F)C(F)(F)F [Example 13, 4-[(11β,17β)-17-hydroxy-3-oxo-17-(pentafluoroethyl)estra-4,9-dien-11-yl]-N-[3-(morpholin-4-yl)propyl]benzamide] | 24 nM
C[C@]12C[C@H](c3ccc(C(=O)N4CCN(Cc5ccccc5)CC4)cc3)C3=C4CCC(=O)C=C4CC[C@H]3[C@@H]1CC[C@@]2(O)C(F)(F)C(F)(F)F [Example 40, (11β,17β)-11-{4-[(4-benzylpiperazin-1-yl)carbonyl]phenyl}-17-hydroxy-17-(pentafluoroethyl)estra-4,9-dien-3-one] | 117 nM

The remaining lines, values ahead:

IC50 | SMILES
0.21 nM | CC(C)(NC(=O)c1ccc([C@H]2C[C@@]3(C)[C@@H](CC[C@@]3(O)C(F)(F)C(F)(F)F)[C@@H]3CCC4=CC(=O)CCC4=C32)cc1)c1ccccc1 [Example 17, 4-[(11β,17β)-17-hydroxy-3-oxo-17-(pentafluoroethyl)estra-4,9-dien-11-yl]-N-(2-phenylpropan-2-yl)benzamide]
2.3 nM | C[C@]12C[C@H](c3ccc(C(=O)NCc4cccc(Cl)c4)cc3)C3=C4CCC(=O)C=C4CC[C@H]3[C@@H]1CC[C@@]2(O)C(F)(F)C(F)(F)F [Example 56, N-(3-chlorobenzyl)-4-[(11β,17β)-17-hydroxy-3-oxo-17-(pentafluoroethyl)estra-4,9-dien-11-yl]benzamide]
1.1 nM | C[C@]12C[C@H](c3ccc(C(=O)NCCc4ccncc4)cc3)C3=C4CCC(=O)C=C4CC[C@H]3[C@@H]1CC[C@@]2(O)C(F)(F)C(F)(F)F [Example 64, 4-[(11β,17β)-17-hydroxy-3-oxo-17-(pentafluoroethyl)estra-4,9-dien-11-yl]-N-[2-(pyridin-4-yl)ethyl]benzamide]
7.2 nM | C[C@]12C[C@H](c3ccc(C(=O)N4CCN(c5ccccc5)CC4)cc3)C3=C4CCC(=O)C=C4CC[C@H]3[C@@H]1CC[C@@]2(O)C(F)(F)C(F)(F)F [Example 30, (11β,17β)-17-hydroxy-17-(pentafluoroethyl)-11-{4-[(4-phenylpiperazin-1-yl)carbonyl]phenyl}estra-4,9-dien-3-one]
1.7 nM | COC(=O)N1CCN(C(=O)c2ccc([C@H]3C[C@@]4(C)[C@@H](CC[C@@]4(O)C(F)(F)C(F)(F)F)[C@@H]4CCC5=CC(=O)CCC5=C43)cc2)CC1 [Example 70, methyl-4-{4-[(11β,17β)-17-hydroxy-3-oxo-17-(pentafluoroethyl)estra-4,9-dien-11-yl]benzoyl}piperazine-1-carboxylate]
0.39 nM | C[C@]12C[C@H](c3ccc(C(=O)Nc4ccc(C(=O)Nc5ccccc5)cc4)cc3)C3=C4CCC(=O)C=C4CC[C@H]3[C@@H]1CC[C@@]2(O)C(F)(F)C(F)(F)F [Example 60, 4-[(11β,17β)-17-hydroxy-3-oxo-17-(pentafluoroethyl)estra-4,9-dien-11-yl]-N-[4-(phenylcarbamoyl)phenyl]benzamide]
0.5 nM | C[C@]12C[C@H](c3ccc(C(=O)Nc4ccccc4C(=O)O)cc3)C3=C4CCC(=O)C=C4CC[C@H]3[C@@H]1CC[C@@]2(O)C(F)(F)C(F)(F)F [Example 76, 2-({4-[(11β,17β)-17-Hydroxy-3-oxo-17-(pentafluoroethyl)estra-4,9-dien-11-yl]benzoyl}amino)benzoic acid]
2.7 nM | C[C@]12C[C@H](c3ccc(C(=O)N4CCN(C(=O)c5ccccc5)CC4)cc3)C3=C4CCC(=O)C=C4CC[C@H]3[C@@H]1CC[C@@]2(O)C(F)(F)C(F)(F)F [Example 65, (11β,17β)-11-{4-[(4-benzoylpiperazin-1-yl)carbonyl]phenyl}-17-hydroxy-17-(pentafluoroethyl)estra-4,9-dien-3-one]
